“And” between values parts separate entries of the source, which are not always exact repeats. Identical values can stand only once.
Tests used:
[1] = Pharmacokinetics of furosemide in rats with and without Juncus effusus extract; type: in vivo; conditions: FS 10 mg/kg i.v. alone
hOAT3 = biological target: T1, hOAT3 (Homo sapiens, UniProt Q8TCC7); assay: Inhibition of 6-CF uptake in HEK-OAT3 cells (screening at 5 μg/ml and concentration-dependent inhibition); type: cell-based; design: Invitrogen (Flp-In system, cells); 6-CF uptake OAT3, Figure 2 raw data (single replicates) / OAT3-mediated 6-CF uptake (Inhibitory effects of butanol extracts on OAT-mediated 6-CF), raw replicate values / OAT3-mediated 6-CF uptake (Inhibitory effects of aqueous extracts on OAT-mediated 6-CF), raw replicate values: unit not given here
T1 sequence (Q8TCC7 1-542): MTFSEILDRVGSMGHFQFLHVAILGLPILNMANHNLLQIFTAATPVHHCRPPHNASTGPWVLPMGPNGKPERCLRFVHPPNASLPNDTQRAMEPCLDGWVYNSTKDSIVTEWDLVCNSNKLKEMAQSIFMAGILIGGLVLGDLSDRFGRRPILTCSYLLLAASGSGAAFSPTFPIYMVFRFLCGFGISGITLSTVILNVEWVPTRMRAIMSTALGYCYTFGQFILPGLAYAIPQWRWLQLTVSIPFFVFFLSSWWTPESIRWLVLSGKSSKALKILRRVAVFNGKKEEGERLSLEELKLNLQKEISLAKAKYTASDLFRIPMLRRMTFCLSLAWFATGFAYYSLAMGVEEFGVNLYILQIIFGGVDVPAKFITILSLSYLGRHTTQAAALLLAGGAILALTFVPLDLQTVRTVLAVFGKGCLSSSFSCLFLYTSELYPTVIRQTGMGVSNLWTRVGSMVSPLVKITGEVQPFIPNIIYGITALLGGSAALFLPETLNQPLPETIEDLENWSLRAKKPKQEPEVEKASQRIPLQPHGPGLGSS
Experimental: The stock solutions of plant extracts were prepared using DMSO with a final concentration of 1 mg/ml. The initial concentration for each extract was set at 5 μg∕ml. Every well contained the same concentration of DMSO (0.5%) to eliminate the potential effect of solvent. […] Before the initial screening, the reproducibility of uptake experiments was evaluated. […] Due to the large number of samples, for the initial screening study, each uptake experimental sample was measured in triplicates in the same assay.
After the uptake was terminated at 4 min and 10 min for OAT1 and OAT3 respectively, intracellular fluorescence was determined as above.

| SMILES | Clobs of FS [1] [L/min/kg × 10^−3] | V z_obs of FS [1] [L/kg ×10^−3] | 6-CF fluorescence of cells (fluorescence images) (hOAT3; HEK-OAT3, co-incubation with probenecid 30 μM) | OAT3-mediated 6-CF uptake (Inhibitory effects of aqueous extracts on OAT-mediated 6-CF), raw replicate values (hOAT3; aqueous extracts, screening at 5 μg/ml, HEK-OAT3 cells, three replicate columns, Control about 100, Prob = positive control) | OAT3-mediated 6-CF uptake (Inhibitory effects of butanol extracts on OAT-mediated 6-CF), raw replicate values (hOAT3; butanol extracts, screening at 5 μg/ml, HEK-OAT3 cells, three replicate columns, Control about 100, Prob = positive control) | 6-CF uptake OAT3, Figure 2 raw data (single replicates) (hOAT3; probenecid 30 μM positive control, 6-CF 4 μM, 10 min, HEK-OAT3) |
| --- | --- | --- | --- | --- | --- | --- |
| NS(=O)(=O)c1cc(C(=O)O)c(NCc2ccco2)cc1Cl [FS, furosemide] | 1.0 ± 1.0 | 146.9 ± 12.1 | – | – | – | – |
| CCCN(CCC)S(=O)(=O)c1ccc(C(=O)O)cc1 [probenecid, Probenecid] | – | – | almost completely abolished | 2.375 and 2.144 and 0.9311 | 2.375 and 2.144 and 0.9311 | 2.375 and 2.144 and 0.9311 |

Source: PMC5446775, “Interactions of 172 plant extracts with human organic anion transporter 1 (SLC22A6) and 3 (SLC22A8): a study on herb-drug interactions” (PeerJ, 2017)
